For one data set, the target named is human O-GlcNAcase (Homo sapiens (Human), UniProt O60502). Nature of the data set: Assay for determination of KI values for inhibition of O-GlcNAcase activity (fluorescence-based hOGA). It is filed as biochemical. Particulars: purified human O-GlcNAcase, 4-Methylumbelliferyl N-acetyl-β-D-glucosaminide substrate, pH 7.0, Cheng-Prusoff. Here is the method:
Assay for Determination of KI Values for Inhibition of O-GlcNAcase Activity
Experimental Procedure for Kinetic Analyses:
Enzymatic reactions were carried out in a reaction containing 50 mM NaH2PO4, 100 mM NaCl and 0.1% BSA (pH 7.0) using 2 mM 4-Methylumbelliferyl N-acetyl-β-D-glucosaminide dihydrate (Sigma M2133) dissolved in ddH2O, as a substrate. The amount of purified human O-GlcNAcase enzyme used in the reaction was 0.7 nM. Test compound of varying concentrations was added to the enzyme prior to initiation of the reaction. The reaction was performed at room temperature in a 96-well plate and was initiated with the addition of substrate. […] The slope of product production was determined for each concentration of compound tested and plotted, using standard curve fitting algorithms for sigmoidal dose response curves. The values for a four parameter logistic curve fit of the data were determined.

Data set [1] in a line: Assay for determination of apparent permeability (Papp), bi-directional transport. It counts as in vitro ADME. Particulars: pig, LLC-PK1; 1 μM test compound, t=3 h, average of A to B and B to A; read-out: Papp LLC-PK1 cells. Here is the method:
Assay for Determination of Apparent Permeability (Papp)
Bi-directional transport was evaluated in LLC-PK1 cells in order to determine apparent permeability (Papp). LLC-PK1 cells can form a tight monolayer and therefore can be used to assess vectorial transport of compounds from basolateral to apical (B→A) and from apical to basolateral (A→B).
To determine Papp, LLC-PK1 cells were cultured in 96-well transwell culture plates (Millipore). Solutions containing the test compounds (1 μM) were prepared in Hank's Balanced Salt Solution with 10 mM HEPES. Substrate solution (150 μL) was added to either the apical (A) or the basolateral (B) compartment of the culture plate, and buffer (150 μL) was added to the compartment opposite to that containing the compound. At t=3 h, 50 μL samples were removed from both sides of monolayers dosed with test compound and placed in 96 well plates, scintillant (200 μL) or internal standard (100 μL labetolol 1 μM) was added to the samples and concentration was determined by liquid scintillation counting in a MicroBeta Wallac Trilux scintillation counter (Perkin Elmer Life Sciences, Boston, Mass.) or by LCMS/MS (Applied Biosystems SCIEX API 5000 triple quadruple mass spectrometer). [^3H]Verapamil (1 μM) was used as the positive control. The experiment was performed in triplicate.
[formula] Where: Volume of Receptor Chamber was 0.15 mL; Area of membrane was 0.11 cm^2; the Initial Concentration is the sum of the concentration measured in the donor plus concentration measured in receiver compartments at t=3 h; A in Concentration is concentration in the receiver compartment at 3 h; and Δ in Time is the incubation time (3×60×60=10800 s). Papp was expressed as 10^−6 cm/s.

The target in the next data set is O-GlcNAcase (Rattus norvegicus (Rat), UniProt Q8VIJ5). Nature of the data set: Cell-based ELISA of O-GlcNAcylated protein (RL-2 antibody) for cellular activity of O-GlcNAcase inhibitors. Particulars: rat PC-12 cells, 24 h treatment, O-GlcNAcylated protein detected with RL-2 antibody. An excerpt:
Assay for Determination of Cellular Activity for Compounds that Inhibit O-GlcNAcase Activity
Inhibition of O-GlcNAcase, which removes O-GlcNAc from cellular proteins, results in an increase in the level of O-GlcNAcylated protein in cells. An increase in O-GlcNAcylated protein can be measured by an antibody, such as RL-2, that binds to O-GlcNAcylated protein. The amount of O-GlcNAcylated protein:RL2 antibody interaction can be measured by enzyme linked immunosorbant assay (ELISA) procedures.
A variety of tissue culture cell lines, expressing endogenous levels of O-GlcNAcase, can be utilized; examples include rat PC-12, and human U-87, or SK—N—SH cells. […] Compounds to be tested were dissolved in DMSO, either 2 or 10 mM stock solution, and then diluted with DMSO and water in a two-step process using a Tecan workstation. […] To prepare a cell lysate, the media from compound treated cells was removed, the cells were washed once with phosphate buffered saline (PBS) and then lysed for 5 minutes at room temperature in 50 μL of Phosphosafe reagent (Novagen Inc, Madison, Wis.) with protease inhibitors and PMSF. The cell lysate was collected and transferred to a new plate, which was then either coated to assay plates directly or frozen −80° C. until used in the ELISA procedure. If desired, the total protein concentration of samples was determined using 20 μL of the sample using the BCA method.
The ELISA portion of the assay was performed in a black Maxisorp 96-well plate that was coated overnight at 4° C. with 100 μL/well of the cell lysate (1:10 dilution of the lysate with PBS containing protease inhibitors, phosphatase inhibitors, and PMSF). […]
The amount of O-GlcNAcylated protein, as detected by the ELISA assay, was plotted for each concentration of test compound using standard curve fitting algorithms for sigmoidal dose response curves. The values for a four parameter logistic curve fit of the data were determined, with the inflection point of the curve being the potency value for the test compound.
For orientation: In an ELISA, binding on a coated surface is turned into a signal by an enzyme label.

human O-GlcNAcase, sequence (O60502 whole entry): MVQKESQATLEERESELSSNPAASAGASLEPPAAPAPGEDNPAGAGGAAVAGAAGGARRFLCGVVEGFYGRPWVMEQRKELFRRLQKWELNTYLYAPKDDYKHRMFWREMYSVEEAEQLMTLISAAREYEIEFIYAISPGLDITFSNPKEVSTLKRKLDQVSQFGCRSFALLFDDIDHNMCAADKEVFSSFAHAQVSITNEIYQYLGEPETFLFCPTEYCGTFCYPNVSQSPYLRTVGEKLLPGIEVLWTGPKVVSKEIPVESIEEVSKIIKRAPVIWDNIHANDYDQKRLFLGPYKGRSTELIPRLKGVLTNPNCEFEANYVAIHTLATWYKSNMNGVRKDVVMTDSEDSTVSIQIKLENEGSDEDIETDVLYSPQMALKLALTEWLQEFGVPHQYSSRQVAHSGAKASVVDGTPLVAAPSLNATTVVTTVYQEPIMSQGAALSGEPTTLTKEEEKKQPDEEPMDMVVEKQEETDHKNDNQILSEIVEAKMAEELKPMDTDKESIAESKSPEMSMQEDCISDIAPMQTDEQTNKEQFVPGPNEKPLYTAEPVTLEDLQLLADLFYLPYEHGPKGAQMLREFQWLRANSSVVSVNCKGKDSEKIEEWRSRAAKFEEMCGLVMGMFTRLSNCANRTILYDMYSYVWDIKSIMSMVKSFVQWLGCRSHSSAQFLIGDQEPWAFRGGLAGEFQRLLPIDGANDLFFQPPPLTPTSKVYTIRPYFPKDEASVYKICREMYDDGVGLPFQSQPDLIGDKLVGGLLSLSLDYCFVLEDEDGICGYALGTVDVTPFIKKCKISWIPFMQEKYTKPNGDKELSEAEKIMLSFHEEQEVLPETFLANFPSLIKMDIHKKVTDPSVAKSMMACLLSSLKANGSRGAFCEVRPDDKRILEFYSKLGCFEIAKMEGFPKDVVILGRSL
O-GlcNAcase, sequence (Q8VIJ5 whole entry): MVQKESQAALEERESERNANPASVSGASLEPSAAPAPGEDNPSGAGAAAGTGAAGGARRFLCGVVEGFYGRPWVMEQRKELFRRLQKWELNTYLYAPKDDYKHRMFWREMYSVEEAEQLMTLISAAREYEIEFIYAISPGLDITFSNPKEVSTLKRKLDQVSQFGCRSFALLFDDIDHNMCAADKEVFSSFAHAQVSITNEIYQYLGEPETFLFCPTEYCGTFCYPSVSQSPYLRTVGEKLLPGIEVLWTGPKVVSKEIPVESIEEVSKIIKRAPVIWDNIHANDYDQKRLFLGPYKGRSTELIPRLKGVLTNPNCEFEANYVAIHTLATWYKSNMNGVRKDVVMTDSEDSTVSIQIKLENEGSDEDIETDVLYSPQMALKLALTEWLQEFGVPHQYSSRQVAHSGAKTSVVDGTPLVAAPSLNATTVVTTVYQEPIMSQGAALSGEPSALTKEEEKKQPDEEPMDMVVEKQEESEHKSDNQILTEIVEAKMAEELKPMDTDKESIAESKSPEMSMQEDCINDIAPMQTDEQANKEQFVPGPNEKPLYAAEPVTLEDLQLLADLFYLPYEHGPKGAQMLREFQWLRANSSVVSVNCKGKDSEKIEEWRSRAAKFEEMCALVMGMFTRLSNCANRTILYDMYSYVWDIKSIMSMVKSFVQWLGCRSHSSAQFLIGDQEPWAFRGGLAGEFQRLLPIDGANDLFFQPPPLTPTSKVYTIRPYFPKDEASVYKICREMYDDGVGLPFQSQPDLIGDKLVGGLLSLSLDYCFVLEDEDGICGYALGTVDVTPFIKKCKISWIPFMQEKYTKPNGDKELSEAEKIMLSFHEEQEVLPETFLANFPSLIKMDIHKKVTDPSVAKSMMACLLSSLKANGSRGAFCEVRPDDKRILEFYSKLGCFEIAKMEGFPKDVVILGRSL

Broadly, the Ki is a dissociation constant, usually derived from enzyme kinetics or from competition with a known ligand. High values mean weaker binding, low ones tighter binding. For orientation: Papp means a coefficient for how fast a substance crosses the barrier. `CC[C@H]1O[C@@H]2SC(NC)=N[C@@H]2[C@@H](F)[C@@H]1O` [Example 15, (3aR,5R,6R,7R,7aR)-5-ethyl-7-fluoro-2-(methylamino)-5,6,7,7a-tetrahydro-3aH-pyrano[3,2-d]thiazol-6-ol] displayed an inhibition constant Ki at human O-GlcNAcase of 156 nM. For the same molecule, the Papp at 3 h, 1 μM in data set [1] was 34 ×10⁻⁶ cm/s. Consider `CC[C@H]1O[C@@H]2SC(NC)=N[C@@H]2[C@H](F)[C@@H]1O` [Example 42, (3aR,5R,6R,7S,7aR)-5-ethyl-7-fluoro-2-(methylamino)-5,6,7,7a-tetrahydro-3aH-pyrano[3,2-d]thiazol-6-ol], for which, at human O-GlcNAcase, the affinity corresponds to a Ki of 50 nM. This counts as double-digit nanomolar. Turning to `CNC1=N[C@@H]2[C@@H](F)[C@H](O)[C@@H]([C@H](C)O)O[C@@H]2S1` [Example 1, (3aR,5R,6R,7R,7aR)-7-fluoro-5-((S)-1-hydroxyethyl)-2-(methylamino)-5,6,7,7a-tetrahydro-3aH-pyrano[3,2-d]thiazol-6-ol], the apparent permeability (Papp) at 3 h, 1 μM in data set [1] was found to be 3.3 ×10⁻⁶ cm/s. For orientation: EC50 means the concentration that produces a half-maximal response. A low value points to a more potent agent. In the case of `CNC1=N[C@@H]2C[C@H](O)[C@@H]([C@@H](O)C(F)(F)F)O[C@@H]2S1` [Example 20, (3aR,5S,6S,7aR)-2-(methylamino)-5-((R)-2,2,2-trifluoro-1-hydroxyethyl)-5,6,7,7a-tetrahydro-3aH-pyrano[3,2-d]thiazol-6-ol], the affinity at human O-GlcNAcase corresponds to a Ki of 3.5 nM. For the same molecule, in data set [1], the Papp at 3 h, 1 μM turned out to be 3.4 ×10⁻⁶ cm/s. In addition, the EC50 at O-GlcNAcase worked out at 50 nM.

Take `CCNC1=N[C@@H]2[C@@H](F)[C@H](O)[C@@H]([C@H](C)O)O[C@@H]2S1` [Example 3, (3aR,5R,6R,7R,7aR)-2-(ethylamino)-7-fluoro-5-((S)-1-hydroxyethyl)-5,6,7,7a-tetrahydro-3aH-pyrano[3,2-d]thiazol-6-ol]: at human O-GlcNAcase, the affinity, expressed as Ki, was 12 nM. In data set [1], the apparent permeability coefficient (Papp) at 3 h, 1 μM turned out to be 5.2 ×10⁻⁶ cm/s. On the same counts, the results for `O[C@H]1[C@H](F)[C@H]2N=C(N3CCC3)S[C@H]2O[C@@H]1[C@@H](O)C(F)(F)F` [Example 32, (3aR,5S,6R,7R,7aR)-2-(azetidin-1-yl)-7-fluoro-5-((R)-2,2,2-trifluoro-1-hydroxyethyl)-5,6,7,7a-tetrahydro-3aH-pyrano[3,2-d]thiazol-6-ol] are 13 nM and 21 ×10⁻⁶ cm/s.

Consider `CCNC1=N[C@@H]2C[C@H](O)[C@@H]([C@H](C)O)O[C@@H]2S1` [Example 13, (3aR,5R,6S,7aR)-2-(ethylamino)-5-((S)-1-hydroxyethyl)-5,6,7,7a-tetrahydro-3aH-pyrano[3,2-d]thiazol-6-ol], for which the Ki at human O-GlcNAcase came to 26 nM. The Papp at 3 h, 1 μM in data set [1] worked out at 2.3 ×10⁻⁶ cm/s. The matching figures for `CCNC1=N[C@@H]2[C@H](F)[C@H](O)[C@@H]([C@@H](C)O)O[C@@H]2S1` [Example 37, (3aR,5R,6R,7S,7aR)-2-(ethylamino)-7-fluoro-5-((R)-1-hydroxyethyl)-5,6,7,7a-tetrahydro-3aH-pyrano[3,2-d]thiazol-6-ol]: 266 nM and 2.1 ×10⁻⁶ cm/s.

As to `C[C@H](O)[C@H]1O[C@@H]2SC(N(C)C)=N[C@@H]2[C@@H](F)[C@@H]1O` [Example 5, (3aR,5R,6R,7R,7aR)-2-(dimethylamino)-7-fluoro-5-((S)-1-hydroxyethyl)-5,6,7,7a-tetrahydro-3aH-pyrano[3,2-d]thiazol-6-ol], affinity at human O-GlcNAcase was put at a Ki of 16 nM. In addition, in data set [1], the Papp at 3 h, 1 μM was found to be 14 ×10⁻⁶ cm/s. For the molecule `CN(C)C1=N[C@@H]2[C@@H](F)[C@H](O)[C@@H]([C@@H](O)C(F)(F)F)O[C@@H]2S1` [Example 11, (3aR,5S,6R,7R,7aR)-2-(dimethylamino)-7-fluoro-5-((R)-2,2,2-trifluoro-1-hydroxyethyl)-5,6,7,7a-tetrahydro-3aH-pyrano[3,2-d]thiazol-6-ol], the Ki at human O-GlcNAcase amounted to 9.5 nM. Moreover, the Papp at 3 h, 1 μM in data set [1] came to 23 ×10⁻⁶ cm/s. Molecule `CNC1=N[C@@H]2[C@H](F)[C@H](O)[C@@H]([C@@H](O)C(F)(F)F)O[C@@H]2S1` [Example 38, (3aR,5S,6R,7S,7aR)-7-fluoro-2-(methylamino)-5-((R)-2,2,2-trifluoro-1-hydroxyethyl)-5,6,7,7a-tetrahydro-3aH-pyrano[3,2-d]thiazol-6-ol] displayed a Ki on human O-GlcNAcase of 0.7 nM. Moreover, the apparent permeability (Papp) at 3 h, 1 μM in data set [1] is 3.7 ×10⁻⁶ cm/s. This molecule also returned an EC50 at O-GlcNAcase of 9.1 nM.

Molecule `CNC1=N[C@@H]2[C@@H](F)[C@H](O)[C@@H]([C@@H](O)C(F)(F)F)O[C@@H]2S1` [Example 9, (3aR,5S,6R,7R,7aR)-7-fluoro-2-(methylamino)-5-((R)-2,2,2-trifluoro-1-hydroxyethyl)-5,6,7,7a-tetrahydro-3aH-pyrano[3,2-d]thiazol-6-ol] showed a Ki at human O-GlcNAcase of 3.5 nM. The apparent permeability coefficient (Papp) at 3 h, 1 μM in data set [1] stood at 6.6 ×10⁻⁶ cm/s. On O-GlcNAcase, this molecule returned an EC50 of 74 nM. `CNC1=N[C@@H]2[C@H](F)[C@H](O)[C@@H]([C@H](C)O)O[C@@H]2S1` [Example 34, (3aR,5R,6R,7S,7aR)-7-fluoro-5-((S)-1-hydroxyethyl)-2-(methylamino)-5,6,7,7a-tetrahydro-3aH-pyrano[3,2-d]thiazol-6-ol]: in data set [1], the Papp at 3 h, 1 μM stood at 1.9 ×10⁻⁶ cm/s. For `CNC1=N[C@@H]2[C@H](F)[C@H](O)[C@@H](C(C)(C)O)O[C@@H]2S1` [Example 43, (3aR,5S,6R,7S,7aR)-7-fluoro-5-(2-hydroxypropan-2-yl)-2-(methylamino)-5,6,7,7a-tetrahydro-3aH-pyrano[3,2-d]thiazol-6-ol], the Ki at human O-GlcNAcase is 390 nM. Also, the Papp at 3 h, 1 μM in data set [1] stood at 2.4 ×10⁻⁶ cm/s. On to `CNC1=N[C@@H]2C[C@H](O)[C@@H]([C@@](C)(O)C(F)(F)F)O[C@@H]2S1` [Example 29, (3aR,5S,6S,7aR)-2-(methylamino)-5-((R)-1,1,1-trifluoro-2-hydroxypropan-2-yl)-5,6,7,7a-tetrahydro-3aH-pyrano[3,2-d]thiazol-6-ol], for which the Ki at human O-GlcNAcase is 492 nM. On human O-GlcNAcase, `CCNC1=N[C@@H]2[C@@H](F)[C@H](O)[C@@H]([C@@H](O)C(F)(F)F)O[C@@H]2S1` [Example 7, (3aR,5S,6R,7R,7aR)-2-(ethylamino)-7-fluoro-5-((R)-2,2,2-trifluoro-1-hydroxyethyl)-5,6,7,7a-tetrahydro-3aH-pyrano[3,2-d]thiazol-6-ol] yielded a Ki of 16 nM. In addition, in data set [1], the Papp at 3 h, 1 μM worked out at 15 ×10⁻⁶ cm/s.

Source of the values: US9409924B2, “Selective glycosidase inhibitors and uses thereof” (Alectos Therapeutics Inc., priority 2011, dated 2016).
